Tested on: HeLa cells
Assay: Kinetic imaging of NBD-triazine probe uptake and sequestration, fitted to nested two-compartment transport model
Type: cell-based
Details: median over optimal solutions within 5% of the best fit
Procedure: In living cells, image data was simultaneously acquired with an automated, high-content, kinetic screening instrument equipped with an environmental chamber (see, e.g., V. C. Abraham, D. L. Taylor and J. R. Haskins, Trends in Biotechnology 22, 15 (2004); herein incorporated by reference in its entirety), as cells were incubated with the fluorescent molecules and after removal of extracellular probe. Data was analyzed off line, using an image analysis algorithm to measure the statistical pixel intensity distribution associated with fluorescence probe sequestration in the perinuclear region (see, e.g., FIG. 21; see also, e.g., G. J. Ding et al., Journal of Biological Chemistry 273, 28897 (1998); herein incorporated by reference in its entirety). Data was parametrized with a nested, two-compartment, transport model (see, e.g., W. E. Evans, J. J. Schentag and W. J. Jusko., Applied Pharmacokinetics: Principles of Therapeutic Drug Monitoring (Lippincott Williams & Wilkins, Vancouver, W.A., 1992); herein incorporated by reference in its entirety), using a statistical link function to relate the kinetic coefficient of variation (CV) of pixel intensities in the images with the concentration of probe in vesicles and cytoplasm. Optimal kinetic parameters fitting the experimental data for each probe to the system described by the two-compartment model and statistical link function were determined using the simulated annealing technique (see, e.g., M. Pincus., Oper. Res. 18, 1225 (1979); herein incorporated by reference in its entirety). The present invention is not limited to a particular mechanism. Indeed, an understanding of the mechanism is not necessary to practice the present invention.
To assess how well the model accounts for all the different kinetic traces acquired, a “PVE” (proportion of variance explained) by the model was calculated. The PVE is one minus the ratio of the sum of squared differences between observed and fitted values to the sum of squared differences between observed values and their mean. PVE values close to one indicate good fit to the nested two-compartment model. The average PVE across the probes was 0.92, with >50% of the probes yielded PVE values […]. The present invention is not limited to a particular mechanism. Indeed, an understanding of the mechanism is not necessary to practice the present invention.
Cell culture. HeLa cells were grown in RPMI+10% FCS in a 5% CO2 atmosphere at 37° C. and plated in 96-well plates at a density of 3000 cells/well 24 hours prior to the start of the experiment.
Kinetic Imaging. For influx experiments, cells on 96-well plates were switched to imaging media consisting of RPMI containing 1.0 mM Bromophenol Blue—a soluble, cell-impermeant chromophore used to suppress excitation and emission of extracellular (background) dye fluorescence-, 10 μM probe and 0.1 μM Hoescht 33258 to label the cell nuclei. Plates were then transferred to a KineticScan instrument (Cellomics, Inc., Pittsburgh, Pa.), which contains an environmentally controlled CO2/temperature/humidity chamber, and data was acquired with a 20× objective lens. Images acquisition began approximately 10 min after dye addition, using the Hoescht channel to acquire nuclear images and FITC channel to acquire the NBD image. Plate-scanning mode was used for scanning, in which the instrument builds time-stacks of images by scanning the plate multiple times, returning to the same site of the plate at every scan. For efflux experiments, dye-containing media was removed from the wells of the plate. The wells were washed twice with fresh RPMI medium, imaging media was added, and image acquisition restarted 7 min after the dye-containing media was removed. The last time points of the influx experiment served as the first time point of the efflux experiment. Plates were scanned for approximately two hours in the influx experiment and six hours for the efflux experiment, with each well imaged on average every 7 minutes. […]

Row | Compound | median Pap(cyto) (apparent partition coefficient between extracellular medium and cytosol) | median Pap(ves) (apparent partition coefficient between cytosol and intracellular vesicles, k(ves)in/k(ves)out)
1 | COc1ccc(CCNc2nc(NCCCCCCNc3ccc([N+](=O)[O-])c4nonc34)nc(NC3CCC(C)CC3)n2)cc1 (stereo not shown) [Compound D4] | 99.03 | 0.22
2 | COc1ccc(CCNc2nc(NCCCCCCNc3ccc([N+](=O)[O-])c4nonc34)nc(NC3CCCCC3C)n2)cc1 (stereo not shown) [Compound D5] | 9.15 | 13.58
3 | COc1ccc(CCNc2nc(NCCCCCCNc3ccc([N+](=O)[O-])c4nonc34)nc(NCC3CCCCC3)n2)cc1 [Compound D6] | 141.76 | 0.24
4 | COc1ccc(CCNc2nc(NCCCCCCNc3ccc([N+](=O)[O-])c4nonc34)nc(NC3CCCCC3)n2)cc1 [Compound D7] | 8.37 | 28.56
5 | COc1ccc(CCNc2nc(NCCCCCCNc3ccc([N+](=O)[O-])c4nonc34)nc(NCCC(C)C)n2)cc1 [Compound D8] | 236.99 | 0.24
6 | COc1ccc(CCNc2nc(NCCCCCCNc3ccc([N+](=O)[O-])c4nonc34)nc(NCCc3ccccc3)n2)cc1 [Compound D10] | 9.41 | 13.79
7 | CC(C)Nc1nc(NCCCCCCNc2ccc([N+](=O)[O-])c3nonc23)nc(NCc2cccc(F)c2)n1 [Compound E2] | 49.62 | 8.43
8 | CCCCCCCCNc1nc(NCCCCCCNc2ccc([N+](=O)[O-])c3nonc23)nc(NCc2cccc(F)c2)n1 [Compound E3] | 4.14 | 19.86
9 | CC1CCC(Nc2nc(NCCCCCCNc3ccc([N+](=O)[O-])c4nonc34)nc(NCc3cccc(F)c3)n2)CC1 (stereo not shown) [Compound E4] | 11.91 | 16.46
10 | CC1CCCCC1Nc1nc(NCCCCCCNc2ccc([N+](=O)[O-])c3nonc23)nc(NCc2cccc(F)c2)n1 (stereo not shown) [Compound E5] | 5.98 | 29.55
11 | O=[N+]([O-])c1ccc(NCCCCCCNc2nc(NCc3cccc(F)c3)nc(NCC3CCCCC3)n2)c2nonc12 [Compound E6] | 10.29 | 20.28
12 | O=[N+]([O-])c1ccc(NCCCCCCNc2nc(NCc3cccc(F)c3)nc(NC3CCCCC3)n2)c2nonc12 [Compound E7] | 8.70 | 16.57
13 | CC(C)CCNc1nc(NCCCCCCNc2ccc([N+](=O)[O-])c3nonc23)nc(NCc2cccc(F)c2)n1 [Compound E8] | 12.09 | 11.21
14 | O=[N+]([O-])c1ccc(NCCCCCCNc2nc(NCCc3ccccn3)nc(NCc3cccc(F)c3)n2)c2nonc12 [Compound E9] | 225.98 | 0.37
15 | O=[N+]([O-])c1ccc(NCCCCCCNc2nc(NCCc3ccccc3)nc(NCc3cccc(F)c3)n2)c2nonc12 [Compound E10] | 5.10 | 14.90
16 | CC(C)Nc1nc(NCCCCCCNc2ccc([N+](=O)[O-])c3nonc23)nc(NCCC(c2ccccc2)c2ccccc2)n1 [Compound F2] | 79.42 | 0.34
17 | CCCCCCCCNc1nc(NCCCCCCNc2ccc([N+](=O)[O-])c3nonc23)nc(NCCC(c2ccccc2)c2ccccc2)n1 [Compound F3] | 21.91 | 9.79
18 | CC1CCC(Nc2nc(NCCCCCCNc3ccc([N+](=O)[O-])c4nonc34)nc(NCCC(c3ccccc3)c3ccccc3)n2)CC1 (stereo not shown) [Compound F4] | 1.89 | 43.56
19 | CC1CCCCC1Nc1nc(NCCCCCCNc2ccc([N+](=O)[O-])c3nonc23)nc(NCCC(c2ccccc2)c2ccccc2)n1 (stereo not shown) [Compound F5] | 6.71 | 21.53
20 | O=[N+]([O-])c1ccc(NCCCCCCNc2nc(NCCC(c3ccccc3)c3ccccc3)nc(NCC3CCCCC3)n2)c2nonc12 [Compound F6] | 6.76 | 19.41
21 | O=[N+]([O-])c1ccc(NCCCCCCNc2nc(NCCC(c3ccccc3)c3ccccc3)nc(NC3CCCCC3)n2)c2nonc12 [Compound F7] | 3.33 | 8.01
22 | CC(C)CCNc1nc(NCCCCCCNc2ccc([N+](=O)[O-])c3nonc23)nc(NCCC(c2ccccc2)c2ccccc2)n1 [Compound F8] | 65.86 | 10.07
23 | O=[N+]([O-])c1ccc(NCCCCCCNc2nc(NCCc3ccccc3)nc(NCCC(c3ccccc3)c3ccccc3)n2)c2nonc12 [Compound F10] | 1.44 | 53.44
24 | CCCCNc1nc(NCCCCCCNc2ccc([N+](=O)[O-])c3nonc23)nc(NCc2ccc(C)cc2)n1 [Compound G1] | 12.30 | 12.14
25 | Cc1ccc(CNc2nc(NCCCCCCNc3ccc([N+](=O)[O-])c4nonc34)nc(NC(C)C)n2)cc1 [Compound G2] | 211.16 | 0.28
26 | CCCCCCCCNc1nc(NCCCCCCNc2ccc([N+](=O)[O-])c3nonc23)nc(NCc2ccc(C)cc2)n1 [Compound G3] | 0.95 | 43.97
27 | Cc1ccc(CNc2nc(NCCCCCCNc3ccc([N+](=O)[O-])c4nonc34)nc(NC3CCC(C)CC3)n2)cc1 (stereo not shown) [Compound G4] | 23.97 | 4.01
28 | Cc1ccc(CNc2nc(NCCCCCCNc3ccc([N+](=O)[O-])c4nonc34)nc(NC3CCCCC3C)n2)cc1 (stereo not shown) [Compound G5] | 57.45 | 8.94
29 | Cc1ccc(CNc2nc(NCCCCCCNc3ccc([N+](=O)[O-])c4nonc34)nc(NCC3CCCCC3)n2)cc1 [Compound G6] | 35.66 | 10.12

From patent publication US20070111251A1, “Chemical address tags” (priority 2003, published 2007)
